Experimental data taken from patent US12258377B2 (Scancell Limited, priority 2012, dated 2025).
Read-outs that look alike come from different tables or passages of the source.

Key:
B16F1 cells = assay: Tumour challenge with B16 tumour lacking HLA-DR0401; format: in vivo, HLA-DR4 transgenic mice; conditions: B16 tumour lacking expression of HLA-DR0401; 25 μg peptide in CpG and MPLA
Protocol: (§1) For tumour challenge experiments mice were challenged with 2.5×10^4 B16 HHDII NYESO/TAP2 siβ2m 1F10 cells or B16 DR4 2E7 cells subcutaneously on the right flank 3 days prior to primary immunisation and then were immunised as above. Anti-IFNγ antibody (300 μg/dose), anti-IL-17 antibody (200 μg/dose) and anti-HLA-DR antibody (300 μg/dose) were administered i.p. in saline at days 2, 7, 11 and 14 post tumour implant. Anti-CD4 antibody (500 μg/dose) was administered i.p.in saline at days 2 and 8 post tumour implant. Tumour growth was monitored at 3-4 days intervals and mice were humanely euthanized once tumour reached ≥10 mm in diameter.

Granzyme B = Granzyme B ELISA on supernatant of ex vivo IFNγ elispot; format: cell-based, HLA-DR4 transgenic mice; conditions: immunised days 0, 7, 14 in CPG and MPLA
Text: Supernatant from ex vivo IFNγ elispot assays on splenocytes was removed after 40 hrs and assessed for Granzyme B by elisa assay (R&D systems) according to manufacturer's instructions.

splenocytes [1] = assay: Ex vivo elispot assay on splenocytes of immunised HLA-DR4 transgenic mice; format: in vivo; conditions: for EC50: 25 μg peptide days 0, 7, 14, day 21
Protocol: (§2) C57BL/6 mice (Charles River, UK), HLA-DR4 mice (Taconic, USA), HHDII mice (Pasteur institute, France) and HHDII/DRI mice (Pasteur institute, France) were used, aged between 8 and 12 weeks, and cared for by the staff at Nottingham Trent University. All work was carried out under a Home Office project license. Peptides were dissolved in 10% Dimethylformamide to 1 mg/ml and then emulsified (a series of dilutions) with different adjuvants: CpG and MPLA 6 μg/mouse of each (Invivogen, UK), Incomplete Freund's […] (Sigma, UK), and GMCSF 10 μg/mouse (Peprotech, UK). Peptides (25 μg/mouse) were injected subcutaneously at the base of the tail. DNA (1 μg/mouse) was coated onto 1.0 μm gold particles (BioRad, Hemel Hempstead, UK) using the manufacturer's instructions and administered intradermally by genegun (BioRad). Homspera (10 nM/mouse) (PeptideSynthetics, UK) was injected intradermally with genegun immunisation. Mice were immunized at either day 0 for peptide immunisation or days, 0, 7, and 14 for peptide and genegun immunisation. Spleens were removed for analysis at day 14 for peptide and day 20 for peptide or genegun immunisation unless stated otherwise. 400 μg Anti-CD25 antibody (PC61) was administered i.p. in saline 3 days prior to the immunisation. 200 μg Anti-CTLA-4 antibody (UC 10-4F, 10-11) was administered i.p. in saline at day 7 and 14 with either genegun or peptide immunisation.
(§3) Elispot assays were performed using murine IFNγ, IL-17 and IL-10 capture and detection reagents according to the manufacturer's instructions (Mabtech, Sweden). In brief, anti-IFNγ, IL-17 and IL-10 antibodies were coated onto wells of 96-well Immobilin-P plate. Synthetic peptides (at a variety of concentrations) and 5×10^5 per well splenocytes were added to the wells of the plate in triplicate. Tumour target cells were added where relevant at 5×10^4/well in triplicate and plates incubated for 40 hrs at 37° C. After incubation, captured IFNγ, […], IL-17 and IL-10 were detected by biotinylated anti-IFNγ, IL-17 and IL-10 antibodies and developed with a strepatavidin alkaline phosphatase and chromogenic substrate. Spots were analysed and counted using an automated plate reader (Cellular Technologies Ltd). Functional avidity was calculated as the concentration mediating 50% maximal effector function using a graph of effector function versus peptide concentration.

splenocytes [2] = assay: Ex vivo elispot assay on splenocytes of immunised HLA-DR1 / HLA-A2/DR1 (HHDII/DR1) transgenic mice; format: in vivo; conditions: HHD1/DR1 mice
Protocol: as §2, §3

B16F1-DR4 cells = assay: Tumour challenge with B16F1-DR4 cells; format: in vivo, HLA-DR4 transgenic mice
Protocol: as §1

splenocytes [3] = assay: Ex vivo elispot assay on splenocytes of immunised C57B1 mice; format: in vivo, C57BL/6 mice; conditions: C57B1 mice
Protocol: as §2, §3

T2 DR4 tumour cells = assay: 51Cr-release assay, CTL lines from immunised mice against T2 DR4 cells; format: cell-based
Protocol: Target cells were labelled for 1 hr with 1.85 MBq sodium (^51Cr) chromate (Amersham, Essex, UK) with or without 10 μg/ml peptide. Post incubation they were washed 3 times in RPMI. Targets 5×10^3/well of a 96-well V-bottomed plates were set up and co incubated with different densities of effector cells in a final volume of 200 μl of RPMI, 10% FCS (Sigma), 20 mM HEPES buffer, 2 mM L-glutamine, 100 units/ml penicillin and 100 μg/ml streptomycin. After 20 hrs at 37° C., 50 μl of supernatants were removed from each well and transferred to a Lumaplate (Packard, Rigaweg, the Netherlands). Plates were read on a Topcount Microplate Scintillation Counter (Packard). Percentage specific lysis was calculated using the following formula: specific lysis=100×[(experimental release−spontaneous release)/(maximum release−spontaneous release)].

PBMC = assay: Proliferation assay of PBMC from cancer patients; format: cell-based, human; conditions: PBMC stimulated with 10 μg/ml peptide for 4, 7 and 11 days, 3H-thymidine
Protocol: PBMC were isolated from freshly drawn heparinised blood by Ficol-Hypaque (Sigma) gradient centrifugation. PBMC (1.5×10^6 cells/well) were stimulated with single peptides (final concentration 10 μg/ml) in RPMI containing 5% pooled autologous human serum, 2 mM glutamine, 20 mM HEPES and Penicillin-streptomycin (1%) in a final volume of 2 ml. Stimulation with purified protein derivative, PPD (final concentration 10 μg/ml) served as a positive control for the proliferative capacity of PBMC. As a negative control PBMC were incubated with medium alone. The PBMC were cultured at 37° C. in an atmosphere of 5% CO2 for 4, 7 and 11 days. To assess proliferation at these times points 100 μl in triplicate from each culture was aliquoted into a round bottom well of a 96 well plate and ^3H-thymidine added (0.0185 MBq/well) and incubated at 37° C. for a further 8 hours. The cultures were harvested onto unifilter plates and incorporation of ^3H-thymidine was determined by β-scintillation counting. The results were assessed by calculating the stimulation index (SI) as the ratio of the mean of counts per minute (cpm) of epitope-stimulated to the mean of unstimulated cultures. The proliferative assay was considered positive when SI >2.5.

HLA-DR0401 = biological target: T1, HLA-DR0401 (human); assay: competitive binding assay, plate-bound HLA-DR0401, biotinylated HA306-318 as competitor
T1 construct: also called purified HLA-DR0401; HLA-DR4

[4] = 25 μg peptide with CpG and MPLA day 0, day 14, peptide 5 μM
[5] = 25 μg peptide with CpG and MPLA day 0, day 14 splenocytes, peptide 5 μM
[6] = 25 μg peptide in CpG and MPLA s.c. days 4, 11, 18

LPNFSSLNLRETNLDSLPL [citrullinated vim 415]
tumour growth and survival (B16F1 cells): failed to show any tumour response
Granzyme B release upon stimulation with citrullinated peptides (Granzyme B): release of Granzyme B
EC50 (splenocytes [1]; anti-CTLA-4 days 7 and 14, IFNγ elispot, read-out: avidity of the T cell response in the presence of an anti-CTLA-4 mab): 10 nM
EC50 (splenocytes [1]; IFNγ elispot, read-out: avidity of the T cell response without anti-CTLA-4 mab): 1000 nM
IFNγ/IL-17 response with alum or IFA (splenocytes [1]; 25 μg peptide s.c., day 14): no response
IFNγ/IL-17 responses with CpG/MPLA, GMCSF and TMX201 adjuvants (splenocytes [1]; 25 μg peptide s.c., day 14): Potent IFNγ/IL-17 responses
IL-10 responses to the citrullinated peptides with IFA (splenocytes [1]; 25 μg peptide s.c., day 14): high frequency IL-10 responses
IL-10 elispot responses (splenocytes [1]; 25 μg peptide with CpG and MPLA day 0, day 14, against wild type and citrullinated peptides): No significant IL-10 responses
IL-2 elispot response to citrullinated peptide, mean (splenocytes [1]; [4]): 350 /million splenocytes
IL-2 elispot response to wild type peptide (splenocytes [1]; [4]): no response
IL-17 elispot response to citrullinated peptide, mean (splenocytes [1]; [4]): 530 /million splenocytes
IL-17 elispot response to wild type peptide, mean (splenocytes [1]; [4]): 140 /million splenocytes
IFNγ elispot response to citrullinated peptide, mean (splenocytes [1]; [5]): 1000 /million splenocytes
IFNγ elispot response to wild type peptide, mean (splenocytes [1]; [5]): no responses
response after depletion of CD4 cells or addition of MHC class II blocking antibody (splenocytes [1]; IFNγ elispot, L243 antibody, FIG. 15): CD4 mediated
T cell responses to mouse vim 415 cit versus human vim 415 cit (splenocytes [1]; immunised with 25 μg human peptide day 0, day 14, IFNγ and IL-17 elispot): equal responses to both peptides
T helper phenotype when immunised with complete Freund's adjuvant (splenocytes [1]; mouse, in vivo): Th1/IL-17 phenotype
response after peptide immunisation (splenocytes [2]): failed to raise a response
mice cured of their tumour (B16F1-DR4 cells; [6]): 30%
mice with no tumour at day 35 (B16F1-DR4 cells; [6]): 50%
anti-tumour response in combination with anti-HLA-DR blocking antibody (B16F1-DR4 cells; B16 tumour expressing HLA-DR0401): prevents the anti-tumour response
anti-tumour response with blockade of IFNγ in vivo (B16F1-DR4 cells; IFNγ neutralising monoclonal antibody): abrogates
anti-tumour response with blockade of IL-17 in vivo (B16F1-DR4 cells; IL-17 neutralising antibody): low significant influence
anti-tumour response in combination with CD4 T cell depletion (anti-CD4 antibody) (B16F1-DR4 cells; clone GK1.5): totally abrogates the anti-tumour response
anti-tumour response / survival (B16F1-DR4 cells; peptide 25 μg in CpG and MPLA s.c. or DNA via gene gun, days 4, 11, 18, versus unimmunised control): strong anti-tumour responses
response after peptide immunisation (splenocytes [3]): failed to raise a response
killing of normal splenocytes (T2 DR4 tumour cells; DR4 splenocytes): no killing of normal splenocytes
killing of T2 tumour cells transfected with human DR4 (T2 DR4 tumour cells; targets pulsed with peptide or not): killed transfected targets whether they were pulsed with the appropriate peptide or not
patients showing a proliferative response (SI >2.5) (PBMC; listed as citrullinated vim 415-433): 5/11
patients showing a proliferative response (SI >2.5) (PBMC; listed as vim 415 cit): Five of eight

RSYVTTSTRTYSLGSALRPSTS (also called vim 28-49; vim 28) [Vimentin 28-49 wild type peptide]
binding result (HLA-DR0401): binds
